Data from the NIST ThermoML archive (doi:10.1021/je800548t).
± gives the expanded uncertainty stated by the source.

Conditions: Liquid, Ebulliometric method (Recirculating still)

| vapor or sublimation pressure (321 K) | vapor or sublimation pressure (325 K) | vapor or sublimation pressure (330 K) | vapor or sublimation pressure (335 K) | vapor or sublimation pressure (340 K) | vapor or sublimation pressure (345 K) | vapor or sublimation pressure (350 K) | vapor or sublimation pressure (355 K) | vapor or sublimation pressure (359 K) | vapor or sublimation pressure (305 K) | vapor or sublimation pressure (310 K) | vapor or sublimation pressure (315 K) | vapor or sublimation pressure (320 K) | vapor or sublimation pressure (342 K) | Compound |
| --- | --- | --- | --- | --- | --- | --- | --- | --- | --- | --- | --- | --- | --- | --- |
| 26.41 ± 0.21 kPa | 32.02 ± 0.26 kPa | 40.44 ± 0.33 kPa | 50.67 ± 0.41 kPa | 63 ± 0.51 kPa | 77.77 ± 0.63 kPa | 95.35 ± 0.77 kPa | 116.13 ± 0.93 kPa | 135.37 ± 1.1 kPa |  |  |  |  |  | CCO [ethanol] |
|  | 73.88 ± 0.3 kPa | 87.71 ± 0.36 kPa | 103.5 ± 0.42 kPa | 121.45 ± 0.49 kPa |  |  |  |  | 34.81 ± 0.14 kPa | 42.47 ± 0.17 kPa | 51.43 ± 0.21 kPa | 61.85 ± 0.25 kPa | 129.28 ± 0.52 kPa | ClC(Cl)Cl [trichloromethane] |
